The values below come from patent US20050203102A1, “antibacterial agents” (priority 2004, published 2005).

Each structure is given as a SMILES string. In brackets after ≈: the same amount, converted by molar mass.

What all share (test): Antimicrobial testing, Agar Dilution Method (NCCLS), MIC
Common to all, as to type: cell-based
Background: In agar dilution the substance is mixed into plates at graded concentrations.

One assay has as its system E. faecalis ATCC 29212. To be noted: Enterococcus faecalis, ATCC29212, Mueller Hinton Agar, 35° C., 20 hours, read-out: Antimicrobial Screening (MIC) E. faecalis ATCC 29212. As to the method: (§1) Briefly, the compounds of invention were weighed, dissolved in Dimethyl Sulfoxide, serially diluted in the same solvent and then incorporated into molten Mueller Hinton Agar in a petridish before solidification, with each petridish containing a different concentration of a compound.
(§2) The Bacterial Inoculum was prepared by touching the tops of 3 to 5 well isolated bacterial colonies with the same morphological appearance from an 18 hour old culture with an inoculating loop, transferring the growth to a tube containing 5 ml of normal saline and adjusting the turbidity of the saline suspension to 0.5 Macfarland Turbidity Standard equivalent to a bacterial population of 1.5×10^8 colony forming units (CFU) per millilitre of suspension.
(§3) The bacterial inoculum prepared in the above manner was inoculated onto petri dishes containing Mueller Hinton Agar which had earlier been incorporated with different dilutions of the compounds of invention by a Multipoint Inoculator with each inoculum spot containing approximately 1×10^4 colony forming units (CFU) of bacteria.
(§4) The inoculated petridishes were incubated at 35° C. in an ambient atmosphere for 20 hours. Petridishes containing different concentrations of Vancomycin and Oxacillin and inoculated with Staphylococcus aureus, Coagulase Negative Staphylococci and Enterococci were incubated for 24 hours.
(§5) The following minimum inhibitory concentrations (μg/ml) were obtained for representative compounds of the invention which are given in the following table: […]

In another assay the test system is S. aureus MRO 00001. The settings on record: Staphylococcus aureus, MRO00001, Mueller Hinton Agar, 35° C., 20 hours, read-out: Antimicrobial Screening (MIC) S. aureus MRO 00001. As to the method:
as §1, §2, §3, §4, §5

The subject of another assay is E. faecium ATCC 700221. The settings on record: Enterococcus faecium, ATCC700221, Mueller Hinton Agar, 35° C., 20 hours, read-out: Antimicrobial Screening (MIC) E. faecium ATCC 700221. Here is the method: as §1, §2, §3, §4, §5
For the next assay, the system named is S. epidermidis MRO 02002. To be noted: Staphylococcus epidermidis, MRO02002, Mueller Hinton Agar, 35° C., 20 hours, read-out: Antimicrobial Screening (MIC) S. epidermidis MRO 02002. As to the method: as §1, §2, §3, §4, §5

Take `CC(=O)NC[C@H]1CN(c2ccc(N3CCN(c4ccc(CC5C(=O)Nc6ccccc65)cc4)CC3)c(F)c2)C(=O)O1` (some centres unmarked) [Example 6]: the MIC in the assay on E. faecalis ATCC 29212, in the assay on S. aureus MRO 00001, with E. faecium ATCC 700221 and in the assay on S. epidermidis MRO 02002 was 4 µg/mL (≈ 7.17 µM) each time.

On to `CCOC(=O)NC[C@H]1CN(c2ccc(N3CCN(c4ccc(CC5C(=O)Nc6ccccc65)cc4)CC3)c(F)c2)C(=O)O1` (some centres unmarked) [Example 15], for which the MIC in the assay with E. faecalis ATCC 29212, with S. aureus MRO 00001, in the assay on E. faecium ATCC 700221 and in the assay with S. epidermidis MRO 02002 was more than 16 µg/mL each time.

Take `CCOC(=O)NC[C@H]1CN(c2ccc(N3CCN(c4ccc(CC5SC(=S)NC5=O)cc4)CC3)c(F)c2)C(=O)O1` (some centres unmarked) [Example 16]: the MIC with E. faecalis ATCC 29212, in the assay with S. aureus MRO 00001, in the assay with E. faecium ATCC 700221 and in the assay on S. epidermidis MRO 02002 was more than 16 µg/mL in each case.

With `CC(=O)NC[C@H]1CN(c2ccc(N3CCN(c4ccc(/C=C5/SC(=S)N(CC(=O)O)C5=O)cc4)CC3)c(F)c2)C(=O)O1` [Example 2], the MIC in the assay on E. faecalis ATCC 29212, in the assay with S. aureus MRO 00001, with E. faecium ATCC 700221 and with S. epidermidis MRO 02002 was 2 µg/mL (≈ 3.26 µM) throughout.

As for `CC(=O)NC[C@H]1CN(c2ccc(N3CCN(c4ccc(/C=C5/SC(=S)NC5=O)cc4)CC3)c(F)c2)C(=O)O1` [Example 5], the MIC – broadly, the lowest concentration that inhibits growth of the organism – came to 2 µg/mL (≈ 3.6 µM) with E. faecalis ATCC 29212, 1 µg/mL (≈ 1.8 µM) in the assay on S. aureus MRO 00001, 1 µg/mL (≈ 1.8 µM) in the assay on E. faecium ATCC 700221 and 1 µg/mL (≈ 1.8 µM) in the assay on S. epidermidis MRO 02002.

For the compound `COC(=O)NC[C@H]1CN(c2ccc(N3CCN(c4ccc(/C=C5/SC(=S)NC5=O)cc4)CC3)c(F)c2)C(=O)O1` [Example 11], the MIC in the assay on E. faecalis ATCC 29212, in the assay on S. aureus MRO 00001, in the assay on E. faecium ATCC 700221 and in the assay on S. epidermidis MRO 02002 was more than 16 µg/mL throughout.

For the compound `COC(=O)NC[C@H]1CN(c2ccc(N3CCN(c4ccc(/C=C5/SC(=S)N(CC(=O)O)C5=O)cc4)CC3)c(F)c2)C(=O)O1` [Example 10], the MIC in the assay with E. faecalis ATCC 29212, in the assay on S. aureus MRO 00001, with E. faecium ATCC 700221 and in the assay on S. epidermidis MRO 02002 was 8 µg/mL (≈ 12.7 µM) each time.

Take `COC(=O)NC[C@H]1CN(c2ccc(N3CCN(c4ccc(/C=C5\SC(=O)NC5=O)cc4)CC3)c(F)c2)C(=O)O1` [Example 9, (S)-N-3-13-fluoro-4-(4-(5-methylene-1,3-thiazolidine-2,4-dione)phenylpiperazin-1-yl)phenyll-1,3-oxazolidin-2-one-5-methyl carbamate]: the minimal inhibitory concentration (MIC) amounted to 1 µg/mL (≈ 1.8 µM) with E. faecalis ATCC 29212, 1 µg/mL (≈ 1.8 µM) in the assay with S. aureus MRO 00001, 0.5 µg/mL (≈ 0.9 µM) in the assay with E. faecium ATCC 700221 and 2 µg/mL (≈ 3.6 µM) in the assay with S. epidermidis MRO 02002.

Take `CC(=O)NC[C@H]1CN(c2ccc(N3CCN(c4ccc(/C=C5/SC(=O)NC5=O)cc4)CC3)c(F)c2)C(=O)O1` [Example 4]: the MIC in the assay with E. faecalis ATCC 29212, in the assay with S. aureus MRO 00001, in the assay with E. faecium ATCC 700221 and in the assay on S. epidermidis MRO 02002 was 1 µg/mL (≈ 1.85 µM) each time.

Regarding `COC(=O)NC[C@H]1CN(c2ccc(N3CCN(c4ccc(CC5SC(=O)NC5=O)cc4)CC3)c(F)c2)C(=O)O1` (stereo partly drawn) [Example 14, [(5S)-3-[3-fluoro-4-(4-(5-methy-1,3-thiazolidine-2,4-dione)phenylpiperazin-1-yl)phenyll-1,3-oxazolidin-2-one-5-methyl carbamate], the minimum inhibitory concentration (MIC) in the assay on E. faecalis ATCC 29212 was 8 µg/mL (≈ 14.3 µM); in the assay on S. aureus MRO 00001, 8 µg/mL (≈ 14.3 µM); in the assay on E. faecium ATCC 700221, 4 µg/mL (≈ 7.17 µM); in the assay with S. epidermidis MRO 02002, 8 µg/mL (≈ 14.3 µM).

On to `CCOC(=O)NC[C@H]1CN(c2ccc(N3CCN(c4ccc(/C=C5/SC(=S)NC5=O)cc4)CC3)c(F)c2)C(=O)O1` [Example 13], for which the MIC in the assay with E. faecalis ATCC 29212, in the assay on S. aureus MRO 00001, in the assay with E. faecium ATCC 700221 and with S. epidermidis MRO 02002 was more than 16 µg/mL throughout.

With `COC(=O)NC[C@H]1CN(c2ccc(N3CCN(c4ccc(CC5C(=O)Nc6ccccc65)cc4)CC3)c(F)c2)C(=O)O1` (some centres unmarked) [Example 17], the minimum inhibitory concentration (MIC) with E. faecalis ATCC 29212, in the assay on S. aureus MRO 00001, with E. faecium ATCC 700221 and with S. epidermidis MRO 02002 was 4 µg/mL (≈ 6.97 µM) each time.

In the case of `CC(=O)NC[C@H]1CN(c2ccc(N3CCN(c4ccc(CC5SC(=O)NC5=O)cc4)CC3)c(F)c2)C(=O)O1` (some centres unmarked) [Example 7], the MIC in the assay on E. faecalis ATCC 29212, in the assay with S. aureus MRO 00001, in the assay with E. faecium ATCC 700221 and in the assay with S. epidermidis MRO 02002 was 8 µg/mL (≈ 14.8 µM) each time.

On to `COC(=S)NC[C@H]1CN(c2ccc(N3CCN(c4ccc(/C=C5\SC(=O)NC5=O)cc4)CC3)c(F)c2)C(=O)O1` [Example 8, (S)-N-3-[3-fluoro-4-(4-(5-methylene-1,3-thiazolidine-2,4-dione)phenylpiperazin-1-yl)phenyll-1,3-oxazolidin-2-one-5-methylthio carbamate], for which the minimum inhibitory concentration (MIC) with E. faecalis ATCC 29212, in the assay with S. aureus MRO 00001, in the assay on E. faecium ATCC 700221 and in the assay on S. epidermidis MRO 02002 was 0.5 µg/mL (≈ 0.875 µM) throughout.

Consider `CC(=O)NC[C@H]1CN(c2ccc(N3CCN(c4ccc(/C=C5\C(=O)Nc6ccccc65)cc4)CC3)c(F)c2)C(=O)O1` [Example 3], for which the MIC in the assay on E. faecalis ATCC 29212 was more than 16 µg/mL; in the assay on S. aureus MRO 00001, more than 16 µg/mL; with E. faecium ATCC 700221, 16 µg/mL (≈ 28.8 µM); with S. epidermidis MRO 02002, more than 16 µg/mL.

Regarding `CC(=O)NC[C@H]1CN(c2ccc(N3CCN(c4ccc(C=O)cc4)CC3)c(F)c2)C(=O)O1` [Example 1], the minimum inhibitory concentration (MIC) in the assay on E. faecalis ATCC 29212 worked out at 2 µg/mL (≈ 4.54 µM); with S. aureus MRO 00001, 1 µg/mL (≈ 2.27 µM); in the assay with E. faecium ATCC 700221 it was 1 µg/mL (≈ 2.27 µM); in the assay with S. epidermidis MRO 02002, 1 µg/mL (≈ 2.27 µM).

Take `CCOC(=O)NC[C@H]1CN(c2ccc(N3CCN(c4ccc(/C=C5/SC(=S)N(CC(=O)O)C5=O)cc4)CC3)c(F)c2)C(=O)O1` [Example 12]: the MIC in the assay on E. faecalis ATCC 29212, with S. aureus MRO 00001, in the assay with E. faecium ATCC 700221 and in the assay with S. epidermidis MRO 02002 was more than 16 µg/mL throughout.
